Assay results taken from patent US10508107B2, “Morpholine derivative” (Hoffmann-La Roche Inc., priority 2016, dated 2019).
Read-outs that look alike come from different tables or passages of the source. Values belong to the compound of their own block, whether it stands above or below them.

Experiments:
[1] = biological target: hERG potassium channel (Homo sapiens (Human), UniProt Q12809); assay: hERG whole-cell patch-clamp in stably transfected CHO cells; assay type: cell-based; settings: for IC50: patch-clamp, CHO cells, 36±1° C.; for selectivity ratio: pH 7.4, hERG IC20 / hTAAR1 EC50, read-out: hERG selectivity ratio versus hTAAR1 EC50
Procedure: The whole-cell patch-clamp technique was used to investigate the effects of the test items on hERG (human-ether-a-go-go related gene) potassium channels in stably transfected CHO cells near physiological temperature (36±1° C.). The effects of compounds on hERG K^+-current parameters were evaluated at 4 concentrations (0.3-3-30-300 μM) in at least 3 CHO cells stably expressing the hERG channel. For electrophysiological measurements cells were seeded onto 35 mm sterile culture dishes containing 2 ml culture medium without Hygromycin B. Cells were cultivated at a density that enabled single cells (without visible connections to neighbouring cells) to be measured. Cells were incubated at 37° C. in a humidified atmosphere with 5% CO2 (rel. humidity about 95%). The cells were continuously maintained in and passaged in sterile culture flasks containing nutrient mixture F-12 (DMEM/F-12 with L-Glutamine) supplemented with 10% foetal bovine serum and 10% penicillin/streptomycin solution. […] The 35 mm culture dishes upon which cells were seeded at a density allowing single cells to be recorded were placed on the dish holder of the microscope and continuously perfused (at approximately 1 ml/min) with the bath solution (sodium chloride 150 mM, potassium chloride 4 mM, calcium chloride 1.2 mM, magnesium chloride 1 mM, HEPES 10 mM, pH (NaOH) 7.4) at near physiological temperature (36±1° C.). After formation of a Gigaohm seal between the patch electrodes and individual hERG stably transfected CHO cells (pipette resistance range: 2.0 MΩ-7.0 Mω; seal resistance range: >1 Gω) the cell membrane across the pipette tip was ruptured to assure electrical access to the cell interior (whole-cell patch-configuration). In case the quality of the seal was poor, the process of seal formation was repeated with a different cell and a new pipette. […] This voltage protocol was run at least 10 times at intervals of 10 s. If current density was judged to be too low for measurement, another cell was recorded. […] During wash-in of the test item the voltage protocol indicated above was run continuously again at 10 s intervals until the steady-state level of block was reached. The four test item concentrations of the compound were applied sequentially to 3 cells in a cumulative manner. […] Based on the IC50 value the IC20 was estimated. Each concentration of the test item was analyzed in three experiments (n=3).

[2] = biological target: human DAT (Homo sapiens (Human), UniProt Q01959); assay: Binding to dopamine transporter (DAT) in vitro, [3H]-WIN35,428 SPA; settings: for Ki: [3H]-WIN35,428 radioligand; for DAT selectivity ratio versus hTAAR1 EC50: DAT Ki / hTAAR1 EC50
Procedure: Binding to dopamine transporter (DAT) in vitro. Human embryonic kidney (HEK) 293 cells (Invitrogen, Zug, Switzerland) stably transfected with human DAT were cultured. The cells were collected and washed three times with phosphate-buffered saline (PBS). The pellets were frozen at −80° C. The pellets were then resuspended in 400 ml of 20 mM HEPES-NaOH, pH 7.4, that contained 10 mM EDTA at 4° C. After homogenization with a Polytron (Kinematica, Lucerne,
Switzerland) at 10000 rotations per minute (rpm) for 15 s, the homogenates were centrifuged at 48000×g for 30 min at 4° C. Aliquots of the membrane stocks were frozen at −80° C. All assays were performed at least three times. The test compounds were diluted in […] of binding buffer (252 mM NaCl, 5.4 mM KCl, 20 mM Na2HPO4, 3.52 mM KH2PO4, pH 7.4) and 10 point dilution curves were made and transferred to 96-well white polystyrene assay plates (Sigma-Aldrich, Buchs, Switzerland). […] Twenty microliters of binding buffer alone in the assay plate defined the total binding, whereas binding in the presence of 10 μM indatraline defined nonspecific binding. Frozen DAT membrane stocks were thawed and resuspended to a concentration of approximately 0.04 mg protein/ml binding buffer (1:1 diluted in H2O) using a polytron tissue homogenizer. The membrane homogenates (40 μg/ml) were then lightly mixed for 5-30 min with polyvinyl toluene […] wheat germ agglutinin-coated scintillation proximity assay (WGASPA; Amersham Biosciences) beads at 7.7 mg beads/ml homogenate. One hundred thirty microliters of the membrane/bead mixture were added to each well of the assay plate that contained radioligand and test compounds (final volume in each well, 200 μl) to start the assay, which was incubated for approximately 2 h at room temperature with agitation. The assay plates were then counted in the PVT SPA counting mode of a Packard Topcount. […] Non-linear regression was used to fit the data to sigmoid curves and determine IC50 values for binding and uptake. Ki values for binding and uptake were calculated using the following Cheng-Prusoff equation: Ki=IC50/(1+[S]/Km).

[3] = biological target: human TAAR1 (Homo sapiens (Human), UniProt Q96RJ0); assay: cAMP functional assay in HEK293 cells expressing human TAAR1; assay type: cell-based; settings: for hTAAR1 efficacy*: % agonist activity, β-phenylethylamine = 100% agonism; for EC50: cAMP, HEK293 cells expressing human TAAR1, read-out: hTAAR1 EC50
Procedure: For the construction of expression plasmids the coding sequences of human TAAR 1 were amplified from genomic DNA essentially as described by Lindemann et al.[14]. The Expand High Fidelity PCR System (Roche Diagnostics) was used with 1.5 mM Mg^2+ and purified PCR products were cloned into pCR2.1-TOPO cloning vector (Invitrogen) following the instructions of the manufacturer. PCR products were subcloned into the pIRESneo2 vector (BD Clontech, Palo Alto, Calif.), and expression vectors were sequence verified before introduction in cell lines.
HEK293 cells (ATCC # CRL-1573) were cultured essentially as described by Lindemann et al. (2005). For the generation of stably transfected cell lines HEK293 cells were transfected with the pIRESneo2 expression plasmids containing the TAAR coding sequences (described above) with Lipofectamine 2000 (Invitrogen) according to the instructions of the manufacturer, and 24 hrs post transfection the culture medium was supplemented with 1 mg/ml G418 (Sigma, Buchs, Switzerland). After a culture period of about 10 d clones were isolated, expanded and tested for responsiveness to trace amines (all compounds purchased from Sigma) with the cAMP Biotrak Enzyme immunoassay (EIA) System (Amersham) following the non-acetylation EIA procedure provided by the manufacturer.
cAMP measurements were performed as described previously (Revel et al., Proc. Natl. Acad. Sci. USA 2011, 108, 8485-8490). In brief, cells that expressed human TAAR1 were plated on 96-well plates (BIOCOAT 6640; Becton Dickinson, Allschwil, Switzerland) and incubated for 20 h at 37° C. Prior to stimulation of the cells with a broad concentration range of agonists for 30 min at 37° C., the cells were washed with PBS and preincubated with PBS that contained 1 mM 3-isobutyl-1-methylxanthine for 10 min at 37° C. and 5% CO2. Stimulation with 0.2% DMSO was set as the basal level, and the effect of 30 μM β-PEA was set as the maximal response. Subsequently, the cells were lysed, and cAMP assays were performed according to the manufacturer's instructions (cAMP kit; Upstate/Millipore, Schaffhausen, Switzerland). Finally, the plates were read with a luminometer (1420 Multilabel counter; PerkinElmer, Schwerzenbach, Switzerland), and the amount of cAMP was calculated. The results were obtained from at least three independent experiments. Experiments were run in duplicate or triplicate. EC50 values are presented as mean ±standard deviation (in μM).

[4] = estimated based on the IC50 value
[5] = human, CHO cells stably expressing hERG
[6] = human, CHO cells stably expressing hERG, pH 7.4, estimated based on the IC50 value

Chain of hERG potassium channel (Q12809 whole entry): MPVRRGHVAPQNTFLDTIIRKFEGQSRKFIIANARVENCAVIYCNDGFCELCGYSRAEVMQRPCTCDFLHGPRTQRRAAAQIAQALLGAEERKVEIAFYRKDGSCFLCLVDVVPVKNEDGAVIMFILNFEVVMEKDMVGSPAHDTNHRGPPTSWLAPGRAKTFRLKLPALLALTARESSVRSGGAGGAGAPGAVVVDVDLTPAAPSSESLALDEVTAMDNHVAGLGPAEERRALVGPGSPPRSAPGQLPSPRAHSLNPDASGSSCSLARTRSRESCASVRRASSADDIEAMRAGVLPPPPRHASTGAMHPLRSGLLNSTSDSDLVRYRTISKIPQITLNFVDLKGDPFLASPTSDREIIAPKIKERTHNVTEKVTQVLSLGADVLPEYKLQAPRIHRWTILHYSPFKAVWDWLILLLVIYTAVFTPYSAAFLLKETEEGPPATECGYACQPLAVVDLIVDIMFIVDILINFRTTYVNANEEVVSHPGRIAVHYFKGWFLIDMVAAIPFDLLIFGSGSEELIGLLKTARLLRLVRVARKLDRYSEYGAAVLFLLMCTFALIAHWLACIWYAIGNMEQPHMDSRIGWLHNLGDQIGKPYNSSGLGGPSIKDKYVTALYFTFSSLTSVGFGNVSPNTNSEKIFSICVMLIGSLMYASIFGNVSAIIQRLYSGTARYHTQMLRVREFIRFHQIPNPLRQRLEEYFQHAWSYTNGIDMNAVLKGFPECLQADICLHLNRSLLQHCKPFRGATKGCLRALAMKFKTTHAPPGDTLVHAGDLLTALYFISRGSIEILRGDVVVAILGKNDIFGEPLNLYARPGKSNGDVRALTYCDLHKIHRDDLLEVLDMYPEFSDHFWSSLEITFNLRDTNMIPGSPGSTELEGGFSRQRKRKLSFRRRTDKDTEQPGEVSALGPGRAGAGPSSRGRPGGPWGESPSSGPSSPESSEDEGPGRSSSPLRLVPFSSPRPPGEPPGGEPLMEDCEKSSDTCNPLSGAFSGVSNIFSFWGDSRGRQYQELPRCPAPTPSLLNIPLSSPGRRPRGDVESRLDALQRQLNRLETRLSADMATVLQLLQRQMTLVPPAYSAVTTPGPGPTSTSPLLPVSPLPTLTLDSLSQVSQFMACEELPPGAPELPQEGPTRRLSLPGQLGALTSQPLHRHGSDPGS
Chain of human DAT (Q01959 whole entry): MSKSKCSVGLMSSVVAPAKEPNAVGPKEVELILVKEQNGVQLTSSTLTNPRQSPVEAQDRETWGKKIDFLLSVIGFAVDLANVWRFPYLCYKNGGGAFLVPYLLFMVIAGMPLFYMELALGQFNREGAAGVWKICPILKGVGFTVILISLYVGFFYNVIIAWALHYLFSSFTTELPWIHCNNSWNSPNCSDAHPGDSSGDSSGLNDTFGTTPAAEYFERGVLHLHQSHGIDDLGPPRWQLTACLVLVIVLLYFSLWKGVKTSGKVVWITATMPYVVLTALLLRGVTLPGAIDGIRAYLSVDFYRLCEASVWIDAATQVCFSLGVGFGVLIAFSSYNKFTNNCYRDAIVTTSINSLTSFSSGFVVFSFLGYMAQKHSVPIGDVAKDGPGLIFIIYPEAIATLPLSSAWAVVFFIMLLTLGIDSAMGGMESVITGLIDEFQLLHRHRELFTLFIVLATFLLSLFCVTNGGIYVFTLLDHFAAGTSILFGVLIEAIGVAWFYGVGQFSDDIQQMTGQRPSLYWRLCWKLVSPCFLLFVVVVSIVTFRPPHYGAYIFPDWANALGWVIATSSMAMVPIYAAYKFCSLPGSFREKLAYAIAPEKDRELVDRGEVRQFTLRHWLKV
Chain of human TAAR1 (Q96RJ0 whole entry): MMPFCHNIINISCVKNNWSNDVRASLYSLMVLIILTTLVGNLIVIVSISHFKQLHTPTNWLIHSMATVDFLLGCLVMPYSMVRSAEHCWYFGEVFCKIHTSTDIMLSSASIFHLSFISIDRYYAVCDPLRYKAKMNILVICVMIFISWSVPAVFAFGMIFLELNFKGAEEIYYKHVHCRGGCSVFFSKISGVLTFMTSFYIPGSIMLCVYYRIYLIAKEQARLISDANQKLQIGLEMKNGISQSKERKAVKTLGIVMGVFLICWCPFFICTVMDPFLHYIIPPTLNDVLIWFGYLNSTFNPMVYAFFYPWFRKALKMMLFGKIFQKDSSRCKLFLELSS

SMILES: CCc1[nH]nc(C(=O)Nc2ccc([C@H]3CNCCO3)cc2)c1C [Example 1, 5-Ethyl-4-methyl-N-[4-[(2S)-morpholin-2-yl]phenyl]-1H-pyrazole-3-carboxamide]
IC20 [1, 4]: 36.2 µM | IC50 [1]: 217 µM | Ki [2]: 27.5 µM | Ki ([2]; listed as example 1): 27.5 µM | hTAAR1 efficacy* [3]: 42% | functional activity at hTAAR1 ([3]; in vitro): partial agonist

hTAAR1 efficacy* [3]: 38%
SMILES: CCc1[nH]nc(C(=O)Nc2ccc([C@@H]3CNCCO3)cc2)c1C [Example 2, 5-Ethyl-4-methyl-N-[4-[(2R)-morpholin-2-yl]phenyl]-1H-pyrazole-3-carboxamide]

SMILES: O=C(Nc1ccc([C@H]2CNCCO2)cc1)c1ccc(OCC(F)(F)F)nc1 [Example 3, N-[4-[(2S)-Morpholin-2-yl]phenyl]-6-(2,2,2-trifluoroethoxy)pyridine-3-carboxamide]
Ratio hERG IC20/hTAAR1 EC50 [1]: 52 | IC20 [1, 4]: 1.97 µM | selectivity ratio [1, 5]: 52 | IC50 [1]: 9.84 µM | Ratio DAT Ki/hTAAR1 EC50 [2]: 462 | Ki [2]: 17.4 µM | hTAAR1 efficacy* [3]: 45% | EC50 [3]: 0.0377 µM

SMILES: O=C(Nc1ccc([C@H]2CNCCO2)cc1)c1ccc(Cl)nc1 [Example 4, 6-Chloro-N-[4-[(2S)-morpholin-2-yl]phenyl]pyridine-3-carboxamide]
Ratio hERG IC20/hTAAR1 EC50 [1]: 201 | IC20 [1, 6]: 12.4 µM | IC50 [1]: 49.7 µM | Ratio DAT Ki/hTAAR1 EC50 [2]: 40 | DAT selectivity ratio versus hTAAR1 EC50 [2]: 40 fold | Ki [2]: 2.5 µM | hTAAR1 efficacy* [3]: 49% | EC50 [3]: 0.0619 µM

SMILES: O=C(Nc1ccc([C@H]2CNCCO2)cc1)c1ccnc(Cl)c1 [Example 5, 2-Chloro-N-[4-[(2S)-morpholin-2-yl]phenyl]pyridine-4-carboxamide]
Ratio hERG IC20/hTAAR1 EC50 [1]: 338 | IC20 [1, 6]: 22.2 µM | IC50 [1]: 81.7 µM | Ratio DAT Ki/hTAAR1 EC50 [2]: 23 | DAT selectivity ratio versus hTAAR1 EC50 [2]: 23 fold | Ki [2]: 1.52 µM | Ki ([2]; listed as example 5): 1.5 µM | hTAAR1 efficacy* [3]: 40% | EC50 [3]: 0.0656 µM

Ki [2]: 5.93 µM | Ki ([2]; listed as example 6): 5.9 µM | hTAAR1 efficacy* [3]: 30% | EC50 [3]: 0.08 µM
SMILES: O=C(Nc1ccc([C@H]2CNCCO2)cc1)c1cnc(-c2ccccc2)s1 [Example 6, N-[4-[(2S)-Morpholin-2-yl]phenyl]-2-phenyl-1,3-thiazole-5-carboxamide]

SMILES: O=C(Nc1ccc([C@H]2CNCCO2)cc1)c1cc(Cl)nc(Cl)c1 [Example 7, 2,6-Dichloro-N-[4-[(2S)-morpholin-2-yl]phenyl]pyridine-4-carboxamide]
Ratio hERG IC20/hTAAR1 EC50 [1]: 43 | IC20 [1, 4]: 3.67 µM | IC20 [1, 6]: 3.57 µM | selectivity ratio [1, 5]: 43 | IC50 [1]: 11.4 µM | Ratio DAT Ki/hTAAR1 EC50 [2]: 9 | DAT selectivity ratio versus hTAAR1 EC50 [2]: 9 fold | Ki [2]: 0.79 µM | hTAAR1 efficacy* [3]: 57% | EC50 [3]: 0.0849 µM

SMILES: Cc1c(C(=O)Nc2ccc([C@H]3CNCCO3)cc2)n[nH]c1-c1ccccc1 [Example 8, 4-Methyl-N-[4-[(2S)-morpholin-2-yl]phenyl]-5-phenyl-1H-pyrazole-3-carboxamide]
Ratio hERG IC20/hTAAR1 EC50 [1]: 28 | IC20 [1, 4]: 3.01 µM | selectivity ratio [1, 5]: 28 | IC50 [1]: 10.8 µM | Ratio DAT Ki/hTAAR1 EC50 [2]: 90 | Ki [2]: 9.77 µM | hTAAR1 efficacy* [3]: 33% | EC50 [3]: 0.109 µM

Ki [2]: 0.48 µM | hTAAR1 efficacy* [3]: 32% | EC50 ([3]; listed as example 9): 0.144 µM | EC50 [3]: 0.144 µM
SMILES: O=C(Nc1ccc([C@H]2CNCCO2)cc1)c1cnc(Cl)c(Cl)c1 [Example 9, 5,6-Dichloro-N-[4-[(2S)-morpholin-2-yl]phenyl]pyridine-3-carboxamide]

SMILES: N#Cc1ccc(C(=O)Nc2ccc([C@H]3CNCCO3)cc2)cn1 [Example 10, 6-Cyano-N-[4-[(2S)-morpholin-2-yl]phenyl]pyridine-3-carboxamide]
Ratio hERG IC20/hTAAR1 EC50 [1]: 31 | IC20 [1, 4]: 5.78 µM | selectivity ratio [1, 5]: 31 | IC50 [1]: 31.7 µM | Ratio DAT Ki/hTAAR1 EC50 [2]: 62 | Ki [2]: 11.3 µM | hTAAR1 efficacy* [3]: 38% | EC50 ([3]; listed as example 10): 0.184 µM | EC50 [3]: 0.184 µM

Ki [2]: 2.33 µM | hTAAR1 efficacy* [3]: 46% | EC50 ([3]; listed as example 11): 0.203 µM | EC50 [3]: 0.203 µM
SMILES: O=C(Nc1ccc([C@H]2CNCCO2)cc1)c1ccc(C(F)(F)F)nc1 [Example 11, N-[4-[(2S)-Morpholin-2-yl]phenyl]-6-(trifluoromethyl)pyridine-3-carboxamide]

SMILES: O=C(Nc1ccc([C@H]2CNCCO2)cc1)c1ccc(Cl)cn1 [Example 12, 5-Chloro-N-[4-[(2S)-morpholin-2-yl]phenyl]pyridine-2-carboxamide]
Ratio hERG IC20/hTAAR1 EC50 [1]: 15 | IC20 [1, 6]: 3.21 µM | selectivity ratio [1, 5]: 15 | IC50 [1]: 14.3 µM | Ratio DAT Ki/hTAAR1 EC50 [2]: 8 | DAT selectivity ratio versus hTAAR1 EC50 [2]: 8 fold | Ki [2]: 1.78 µM | hTAAR1 efficacy* [3]: 40% | EC50 ([3]; listed as example 12): 0.212 µM | EC50 [3]: 0.212 µM
